Patent publication US20260049101A1, “TOPICAL TREATMENT OF SKIN CANCER USING OLIGOPEPTIDES” (BACOBA AG, priority 2022, published 2026)
“Also recorded” adds a separate entry of the source. Read-outs that look alike come from different tables or passages of the source. Numbered stars: 1 amine (or outer) side, 2 acyl side, 3 side chain; on linkers, the order of the positions; unused ones are H or OH. Square brackets hold non-standard residues; d marks the D form. Peptide text beside a SMILES is read from it. * marks the point of attachment. X1 = CCC(=O)C[C@H](O)C[C@@H](C)C[C@H](N[*:1])C(=O)[*:2]; Hexenoyl(2E,4S-Me) = CC[C@H](C)/C=C/C(=O)*; Leu(3R-OH) = CC(C)[C@@H](O)[C@H](N)C(=O)O; NH((S)CH(Me)CH2NMe2) = C[C@@H](CN(C)C)N*; Pro(4S-Me) = C[C@@H]1CN[C@H](C(=O)O)C1; Aib = CC(C)(N)C(=O)O; βAla = NCCC(=O)O

What was measured:
[1] = tested on: patient derived Basal Cell Carcinoma (BCC); type: cell-based, human; details: 20 μM, 4 days, vs DMSO; p<0.002
From the text: Tumour material was harvested from an infiltrative basal cell carcinoma (BCC) from a patient's nose.

[2] = tested on: patient derived Basal Cell Carcinoma (BCC); type: cell-based, human; details: 20 μM, 4 days, vs DMSO
[3] = tested on: B16F10 xenografts in C57BL/6 mice; test: In vivo efficacy test, dermal treatment of intradermal B16-F10 tumours (tumour volume); design: species or system mouse; details: 20 μl of 0.2% leucinostatin A dermally, treatment not continued longer than 7 days, observed to day 16
Description: (§1) In vivo efficacy test methodology. C57Bl/6 mice (Janvier Labs); females; 6-8 weeks old at beginning of the treatment. The tumour was induced through intradermal inoculation of 1×10^5 cells per mouse intradermally in the skin of the neck. A total of 24 mice were used (n=8 for vehicle, n=8 for 5% 6027, n=8 for leucinostatin A 0.2%). Test item was applied starting on day 1 after inoculation of the tumour cells. The test items of 20 μl of 5% 6027 and of 0.2% Leucinostatin A were applied dermally with a pipette once a day every day for up to 21 days to the intact skin area of about 1 cm^2 on the site were the B16-F10 cells had been injected. If ulceration occurred then the animal was removed from the test and sacrificed.
The read out was tumour volume measured three times a week expressed as tumour volume (in cm^3). Additionally, tumour samples were taken for histological analysis (Tumour FFPE) (2 mice per group).

[4] = Dermal tolerability in the in vivo efficacy test; design: species or system mouse
Description: as §1

Row | SMILES | cell proliferation (Ki67) [1] | apoptotic cells (TUNEL positive cells) [2] | cell proliferation (Ki67) [2] | reduction of tumour volume [3] | skin irritation ([4]; 0.2% leucinostatin A (lowest test concentration)) | tolerability of dermal treatment ([4]; 0.2% leucinostatin A once a day)
1 | CS(=O)(=O)c1ccc(C(=O)Nc2ccc(Cl)c(-c3ccccn3)c2)c(Cl)c1 [Vismodegib, reference compound] | significantly reduced | Significant increase | significantly reduced | – | – | –
2 | CCC(=O)C[C@H](O)C[C@@H](C)C[C@H](NC(=O)[C@@H]1C[C@H](C)CN1C(=O)/C=C/[C@@H](C)CC)C(=O)N[C@H](C(=O)NC(C)(C)C(=O)N[C@@H](CC(C)C)C(=O)N[C@@H](CC(C)C)C(=O)NC(C)(C)C(=O)NC(C)(C)C(=O)NCCC(=O)N[C@@H](C)CN(C)C)[C@H](O)C(C)C [leucinostatin A, reference compound] ({Hexenoyl(2E,4S-Me)}-[Pro(4S-Me)][X1][Leu(3R-OH)][Aib]LL[Aib][Aib][βAla]-{NH((S)CH(Me)CH2NMe2)}; N-terminus and C-terminus assumed) | – | – | – | no significant reduction of tumour volume | strong skin irritation with destruction of the epidermis; also recorded: strong skin irritating effect | not tolerated
